From patent US6737383B1, “Herbicidal oxadiazolidines” (priority 1999, dated 2004)

What was measured:
[1] = tested on: bedstraw; test: Test B pre/postemergence bedstraw; type: in vivo, Galium aparine
Method in brief: (§1)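 Response is a visual 0-to-10 score relative to untreated plants, where 0 means no effect and 10 means complete control, taken twelve to sixteen days after application. Treatments went onto soil at planting and onto foliage of 1- to 4-leaf plants, using a surfactant-containing non-phytotoxic solvent.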

[2] = tested on: blackgrass; test: Test B pre/postemergence blackgrass; type: in vivo, Alopecurus myosuroides
Method in brief: as §1

[3] = tested on: surinam grass; test: Test B pre/postemergence surinam grass; type: in vivo, Brachiaria decumbens
Method in brief: as §1

[4] = tested on: cocklebur; test: Test B pre/postemergence cocklebur; type: in vivo, Xanthium strumarium
Method in brief: as §1

[5] = tested on: corn; test: Test B pre/postemergence corn; type: in vivo, Zea mays
Method in brief: as §1

[6] = tested on: crabgrass; test: Test B pre/postemergence crabgrass; type: in vivo, Digitaria sanguinalis
Method in brief: as §1

[7] = tested on: giant foxtail; test: Test B pre/postemergence giant foxtail; type: in vivo, Setaria faberii
Method in brief: as §1

[8] = tested on: morningglory; test: Test B pre/postemergence morningglory; type: in vivo, Ipomoea hederacea
Method in brief: as §1

[9] = tested on: pigweed; test: Test B pre/postemergence pigweed; type: in vivo, Amaranthus retroflexus
Method in brief: as §1

[10] = tested on: rape; test: Test B pre/postemergence rape; type: in vivo, Brassica napus
Method in brief: as §1

[11] = tested on: soybean; test: Test B pre/postemergence soybean; type: in vivo, Glycine max
Method in brief: as §1

[12] = tested on: sugar beet; test: Test B pre/postemergence sugar beet; type: in vivo, Beta vulgaris
Method in brief: as §1

[13] = tested on: velvetleaf; test: Test B pre/postemergence velvetleaf; type: in vivo, Abutilon theophrasti
Method in brief: as §1

[14] = tested on: wheat; test: Test B pre/postemergence wheat; type: in vivo, Triticum aestivum
Method in brief: as §1

[15] = tested on: wild oat; test: Test B pre/postemergence wild oat; type: in vivo, Avena fatua
Method in brief: as §1

[16] = tested on: purple nutsedge; test: Test B pre/postemergence purple nutsedge; type: in vivo, Cyperus rotundus
Method in brief: as §1

[17] = Postemergence, Rate 62 g/ha, scale of 0 to 10, 0 is no effect, 10 is complete control
[18] = Postemergence, Rate 125 g/ha, scale 0 to 10, 0 is no effect, 10 is complete control
[19] = Postemergence, Rate 500 g/ha, scale 0 to 10, 0 is no effect, 10 is complete control
[20] = Preemergence, Rate 62 g/ha, scale 0 to 10 (0 no effect, 10 complete control)
[21] = Preemergence, Rate 125 g/ha, scale 0 to 10, 0 is no effect, 10 is complete control
[22] = Preemergence, Rate 500 g/ha, scale of 0 to 10 where 0 is no effect and 10 is complete control
[23] = Rate 250 g/ha, Postemergence, scale of 0 to 10 where 0 is no effect and 10 is complete control

Q: How did the “Bedstraw plant response rating” value [1, 17] turn out when `CC(C)=CCn1c(=O)on(C(=O)N(c2ccc(Cl)cc2)C(C)C)c1=O` [Compound 545] was run?
A: 0

Q: And the “Bedstraw plant response rating” value [1, 18]?
A: 0

Q: And the “Plant response rating, Bedstraw” value [1, 19]?
A: 7

Q: And the “Bedstraw plant response rating” value [1, 20]?
A: 0

Q: And the “Bedstraw plant response rating” value [1, 21]?
A: 0

Q: What about the “Bedstraw plant response rating (0 to 10 scale)” value ([1]; Preemergence, Rate 250 g/ha) of the same compound?
A: 0

Q: And the “Bedstraw plant response rating” value [1, 22]?
A: 10

Q: What about the “Plant response rating, Bedstraw” value [1, 23] of the same compound?
A: 2

Q: What about the “Blackgrass plant response rating” value [2, 17] of the same compound?
A: 0

Q: And the “Blackgrass plant response rating” value [2, 18]?
A: 0

Q: What about the “Plant response rating, Blackgrass” value [2, 19] of the same compound?
A: 0

Q: And the “Blackgrass plant response rating” value [2, 20]?
A: 0

Q: And the “Blackgrass plant response rating” value [2, 21]?
A: 0

Q: And the “Blackgrass plant response rating (0 to 10 scale)” value ([2]; Preemergence, Rate 250 g/ha)?
A: 2

Q: And the “Blackgrass plant response rating” value [2, 22]?
A: 9

Q: And the “Plant response rating, Blackgrass” value [2, 23]?
A: 0

Q: What about the “B. signalgrass plant response rating” value [3, 17] of the same compound?
A: 0

Q: And the “B. signalgrass plant response rating” value [3, 18]?
A: 0

Q: What about the “Plant response rating, B. signalgrass” value [3, 19] of the same compound?
A: 2

Q: What about the “B. signalgrass plant response rating” value [3, 20] of the same compound?
A: 0

Q: What about the “B. signalgrass plant response rating” value [3, 21] of the same compound?
A: 0

Q: And the “B. signalgrass plant response rating (0 to 10 scale, 0 is no effect, 10 is complete control)” value ([3]; Preemergence, Rate 250 g/ha)?
A: 0

Q: And the “B. signalgrass plant response rating” value [3, 22]?
A: 5

Q: And the “Plant response rating, B. signalgrass” value [3, 23]?
A: 2

Q: What about the “Cocklebur plant response rating” value [4, 17] of the same compound?
A: 0

Q: And the “Cocklebur plant response rating” value [4, 18]?
A: 3

Q: What about the “Cocklebur plant response rating” value [4, 20] of the same compound?
A: 0

Q: And the “Cocklebur plant response rating” value [4, 21]?
A: 0

Q: What about the “Cocklebur plant response rating (0 to 10 scale)” value ([4]; Preemergence, Rate 250 g/ha) of the same compound?
A: 0

Q: And the “Cocklebur plant response rating” value [4, 22]?
A: 0

Q: And the “Plant response rating, Cocklebur” value [4, 23]?
A: 8

Q: What about the “Corn plant response rating” value [5, 17] of the same compound?
A: 0

Q: What about the “Corn plant response rating” value [5, 18] of the same compound?
A: 0

Q: And the “Plant response rating, Corn” value [5, 19]?
A: 0

Q: And the “Corn plant response rating” value [5, 20]?
A: 0

Q: What about the “Corn plant response rating” value [5, 21] of the same compound?
A: 0

Q: What about the “Corn plant response rating (0 to 10 scale)” value ([5]; Preemergence, Rate 250 g/ha) of the same compound?
A: 0

Q: And the “Corn plant response rating” value [5, 22]?
A: 0

Q: What about the “Plant response rating, Corn” value [5, 23] of the same compound?
A: 0

Q: And the “Crabgrass plant response rating” value [6, 17]?
A: 0

Q: And the “Crabgrass plant response rating” value [6, 18]?
A: 2

Q: What about the “Plant response rating, Crabgrass” value [6, 19] of the same compound?
A: 9

Q: And the “Crabgrass plant response rating” value [6, 20]?
A: 8

Q: What about the “Crabgrass plant response rating” value [6, 21] of the same compound?
A: 10

Q: What about the “Crabgrass plant response rating (0 to 10 scale)” value ([6]; Preemergence, Rate 250 g/ha) of the same compound?
A: 10

Q: What about the “Crabgrass plant response rating” value [6, 22] of the same compound?
A: 10

Q: What about the “Plant response rating, Crabgrass” value [6, 23] of the same compound?
A: 3

Q: What about the “Giant foxtail plant response rating” value [7, 17] of the same compound?
A: 0

Q: And the “Giant foxtail plant response rating” value [7, 18]?
A: 0

Q: What about the “Plant response rating, Giant foxtail” value [7, 19] of the same compound?
A: 5

Q: What about the “Giant foxtail plant response rating” value [7, 20] of the same compound?
A: 10

Q: What about the “Giant foxtail plant response rating” value [7, 21] of the same compound?
A: 10

Q: What about the “Giant foxtail plant response rating (0 to 10 scale)” value ([7]; Preemergence, Rate 250 g/ha) of the same compound?
A: 10

Q: What about the “Giant foxtail plant response rating” value [7, 22] of the same compound?
A: 10

Q: And the “Plant response rating, Giant foxtail” value [7, 23]?
A: 3

Q: What about the “Morningglory plant response rating” value [8, 17] of the same compound?
A: 4

Q: And the “Morningglory plant response rating” value [8, 18]?
A: 4

Q: And the “Morningglory plant response rating” value [8, 20]?
A: 0

Q: And the “Morningglory plant response rating” value [8, 21]?
A: 0

Q: What about the “Morningglory plant response rating (0 to 10 scale)” value ([8]; Preemergence, Rate 250 g/ha) of the same compound?
A: 0

Q: What about the “Morningglory plant response rating” value [8, 22] of the same compound?
A: 8

Q: What about the “Plant response rating, Morningglory” value [8, 23] of the same compound?
A: 10

Q: What about the “Redroot pigweed plant response rating” value [9, 17] of the same compound?
A: 0

Q: What about the “Redroot pigweed plant response rating” value [9, 18] of the same compound?
A: 0

Q: And the “Plant response rating, Redroot pigweed” value [9, 19]?
A: 0

Q: What about the “Redroot pigweed plant response rating” value [9, 20] of the same compound?
A: 3

Q: And the “Redroot pigweed plant response rating” value [9, 21]?
A: 8

Q: What about the “Redroot pigweed plant response rating (0 to 10 scale)” value ([9]; Preemergence, Rate 250 g/ha) of the same compound?
A: 9

Q: And the “Redroot pigweed plant response rating” value [9, 22]?
A: 10

Q: And the “Plant response rating, Redroot pigweed” value [9, 23]?
A: 0

Q: What about the “Rape plant response rating” value [10, 17] of the same compound?
A: 0

Q: And the “Rape plant response rating” value [10, 18]?
A: 0

Q: And the “Plant response rating, Rape” value [10, 19]?
A: 3

Q: What about the “Rape plant response rating” value [10, 20] of the same compound?
A: 0

Q: What about the “Rape plant response rating” value [10, 21] of the same compound?
A: 0

Q: And the “Rape plant response rating (0 to 10 scale)” value ([10]; Preemergence, Rate 250 g/ha)?
A: 0

Q: What about the “Rape plant response rating” value [10, 22] of the same compound?
A: 2

Q: And the “Plant response rating, Rape” value [10, 23]?
A: 0

Q: What about the “Soybean plant response rating” value [11, 17] of the same compound?
A: 1

Q: What about the “Soybean plant response rating” value [11, 18] of the same compound?
A: 1

Q: And the “Plant response rating, Soybean” value [11, 19]?
A: 2

Q: And the “Soybean plant response rating” value [11, 20]?
A: 0

Q: What about the “Soybean plant response rating” value [11, 21] of the same compound?
A: 0

Q: And the “Soybean plant response rating (0 to 10 scale)” value ([11]; Preemergence, Rate 250 g/ha)?
A: 0

Q: And the “Soybean plant response rating” value [11, 22]?
A: 0

Q: What about the “Plant response rating, Soybean” value [11, 23] of the same compound?
A: 2

Q: And the “Sugarbeets plant response rating” value [12, 17]?
A: 0

Q: And the “Sugarbeets plant response rating” value [12, 18]?
A: 0

Q: And the “Plant response rating, Sugarbeets” value [12, 19]?
A: 3

Q: What about the “Sugarbeets plant response rating” value [12, 20] of the same compound?
A: 0

Q: What about the “Sugarbeets plant response rating” value [12, 21] of the same compound?
A: 0

Q: What about the “Sugarbeets plant response rating (0 to 10 scale)” value ([12]; Preemergence, Rate 250 g/ha) of the same compound?
A: 2

Q: And the “Sugarbeets plant response rating” value [12, 22]?
A: 6

Q: And the “Plant response rating, Sugarbeets” value [12, 23]?
A: 0

Q: And the “Velvetleaf plant response rating” value [13, 17]?
A: 0

Q: And the “Velvetleaf plant response rating” value [13, 18]?
A: 3

Q: What about the “Velvetleaf plant response rating” value [13, 20] of the same compound?
A: 0

Q: And the “Velvetleaf plant response rating” value [13, 21]?
A: 0

Q: And the “Velvetleaf plant response rating (0 to 10 scale)” value ([13]; Preemergence, Rate 250 g/ha)?
A: 0

Q: What about the “Velvetleaf plant response rating” value [13, 22] of the same compound?
A: 0

Q: And the “Plant response rating, Velvetleaf” value [13, 23]?
A: 6

Q: And the “Wheat plant response rating” value [14, 17]?
A: 0

Q: And the “Wheat plant response rating” value [14, 18]?
A: 0

Q: And the “Plant response rating, Wheat” value [14, 19]?
A: 0

Q: And the “Wheat plant response rating” value [14, 20]?
A: 0

Q: What about the “Wheat plant response rating” value [14, 21] of the same compound?
A: 0

Q: And the “Wheat plant response rating (0 to 10 scale)” value ([14]; Preemergence, Rate 250 g/ha)?
A: 0

Q: And the “Wheat plant response rating” value [14, 22]?
A: 2

Q: What about the “Plant response rating, Wheat” value [14, 23] of the same compound?
A: 0

Q: And the “Wild oats plant response rating” value [15, 17]?
A: 0

Q: And the “Wild oats plant response rating” value [15, 18]?
A: 0

Q: What about the “Plant response rating, Wild oats” value [15, 19] of the same compound?
A: 0

Q: And the “Wild oats plant response rating” value [15, 20]?
A: 0

Q: And the “Wild oats plant response rating” value [15, 21]?
A: 0

Q: And the “Wild oats plant response rating (0 to 10 scale)” value ([15]; Preemergence, Rate 250 g/ha)?
A: 2

Q: What about the “Wild oats plant response rating” value [15, 22] of the same compound?
A: 6

Q: What about the “Plant response rating, Wild oats” value [15, 23] of the same compound?
A: 0

Q: And the “Nutsedge plant response rating” value [16, 17]?
A: 0

Q: And the “Nutsedge plant response rating” value [16, 20]?
A: 0

Q: And the “Nutsedge plant response rating” value [16, 21]?
A: 0

Q: What about the “Nutsedge plant response rating (0 to 10 scale)” value ([16]; Preemergence, Rate 250 g/ha) of the same compound?
A: 0

Q: And the “Nutsedge plant response rating” value [16, 22]?
A: 0
